{"source": "patent US5346814A", "about": "“Method of detecting cell response to cell-damaging energy” (Board of Trustees of the Leland Stanford Jr. University, priority 1992, dated 1994)", "key": {"[1]": {"tested_on": "voltage-dependent potassium currents in A549 cells", "test": "Whole-cell voltage-clamp recording of K+ currents in non-irradiated A549 cells after chemical treatment", "format": "cell-based, human", "description": "Voltage-Clamp Recordings. Whole-cell recording was performed by voltage clamp analysis as described by Hamill et al. (1981). In general, prior to whole cell recording, the cell medium was replaced with serum-free medium to ensure a better giga-ohm seal. […] Glass electrodes having a tip resistance of 3-7 Mohms were sylgarded (with Sylgard, Dow Chemical) and backfilled with a solution containing 140 mM KCl, 2 mM MgCl2, 11 mM EGTA, 1 mM CaCl2, and 10 mM Hepes, pH 7.2. […] A test pulse of 20 mV was applied, and the cell was then aspirated against the tip of the microelectrode. The membrane seal resistance was determined from the reduction in voltage of the test pulse.\nMembrane currents were filtered at 2 kHz using a 4-pole low pass Bessel filter before sampling with a 12-bit digital-analog converter controlled by a Labmaster board (Scientific Solutions) in an IBM AT computer. Leakage currents were subtracted from the total currents measured at each voltage either by using a p,p/4 algorithm (Armstrong and Bezanilla, 1974) built into the software (INDEC Systems, Santa Cruz, Calif.), or after determining the linear component from the current-voltage (I-V) relation near the holding potential of -75 mV. The limit of sensitivity of the current measurements in these experiments was about 50-60 pA."}, "HSP70": {"tested_on": "HSP70", "test": "Western blot of HSP70 polypeptide levels in RIF-1 cells (N-27 antibody)", "format": "cell-based, murine", "procedure": "Western Blot Analysis In general, following separation of cellular proteins by sodium dodecyl sulfate (SDS)-polyacrylamide gel electrophoresis, separated proteins were electroblotted onto a nitrocellulose membrane using a 25 mM Tris-HCl/192 mM glycine/20% (v/v) methanol transfer buffer (pH 8.3) in a Trans-Blot apparatus (Bio-Rad, Richmond, Calif.) at 15 V and 100 mA for 12 to 14 h. The blot was blocked in 5% nonfat dry milk in TBS (50 mM Tris containing 0.2 M NaCl, pH 7.4) at room temperature for 1h; this step and all following steps were done with continuous agitation. The primary antibody was diluted 1:200 in 3% nonfat dry milk in TBS, and the blot was incubated for 16 to 24 h at 4° C. […]\nRIF-1 cells were grown for 7 days in the presence of 2% DMSO as in Example 9. After the seventh day, cells were heated at 45° C. for 10 min, and were analyzed either immediately by SDS gel/Western blot analysis, or after an additional 18 hour growth period at 37° C. to allow synthesis of heat-inducible HSP70 polypeptides. […]\nIn a parallel set of experiments, heating of the mock- and gene-transfectedcells was performed in the presence or absence of 20 mM TEA, and the expression of HSP70 proteins was determined by immunoblot analysis, using the HSP70-specific N-27 antibody as in Example 10."}, "[2]": {"tested_on": "voltage-dependent potassium channel currents in TR-4 cells", "conditions": "20 mM TEA in cell medium during current measurement; TR-4 cells heated 45° C. 10 min"}, "[3]": {"tested_on": "voltage-dependent potassium currents in RIF-1 cells", "test": "Whole-cell voltage-clamp recording of heat-inducible potassium currents in DMSO-treated RIF-1 cells", "format": "cell-based, murine", "conditions": "RIF-1 cells grown in 2% DMSO", "procedure": "(§1) Voltage-Clamp Recordings.\nThe potassium currents of RIF-1 cells grown in the presence of 2% DMSO as above (Example 7) were determined in the presence and absence of 20 mM TEA following heating of the cells at 45° C. for 10 minutes, as in Example 2."}, "RIF-1 cells": {"tested_on": "RIF-1 cells", "test": "Clonogenic survival assay after heating at 45° C., RIF-1 cells", "format": "cell-based, murine", "procedure": "RIF-1 cells were grown at 37° C. in RPMI-1640 medium supplemented with 10% FBS and 2% (v/v) DMSO (dimethylsulfoxide). After seven days of growth, the medium was replaced with DMSO-free medium, and the heat sensitivity of the cells in the presence and absence of 20 mM TEA was determined by clonogenic assay as in Example 4. The results are shown in FIGS. 7A and 7B, with survival data for non-DMSO-treated RIF-1 cells shown for comparison."}, "TR-4 cells": {"tested_on": "TR-4 cells", "conditions": "20 mM TEA during 45° C. 40 min heating step and/or 12 h 37° C. incubation", "procedure": "The development of thermotolerance in TR-4 cells in the presence or absence of 20 mM TEA was assessed by heating the cells at 45° C. for 40 min, followed by a 12 h incubation at 37° C. (Hahn and van Kersen, 1988), and assessment of cell survival following heating and clonogenic assay as described in Example 4. Five groups of TR-4 cells (a to e) were examined, differing only as to which steps of the procedure included TEA in the cell medium."}, "A549 cells": {"tested_on": "A549 cells", "conditions": "20 mM TEA in cell medium during irradiation, doses greater than about 200 cGy", "procedure": "γ-irradiation. Cells were irradiated at room temperature using a ^137 [Cs] source at a dose rate of 150 cGy/min. The ^137 [Cs] source consisted of a Mark I irradiator (model 30, 2000 Ci ^137 [Cs]) from J. L. Shepherd and Associates (Glendale, Calif.). Unless noted otherwise, the cells were incubated at 37° C. after irradiation for further characterization.\nIn another experiment, cell survival of A549 cells was measured as a function of ^137 Cs irradiation dosages (0-1000 cGy) in the presence or absence of 20 mM TEA in the cell medium during irradiation."}, "[4]": {"tested_on": "voltage-dependent potassium currents in A549 cells", "test": "Whole-cell voltage-clamp recording of radiation-induced K+ currents in A549 cells", "format": "cell-based, human", "procedure": "as §1\nIn a second study, to determine whether the induced currents -were affected by the presence of TEA, A549 cells were exposed to 150 cGy of 137Cs γ-irradiation, and the radiation-induced currents were measured under three different conditions: (a) directly after irradiation, (b) after replacement of the bath solution with medium containing 20 mM TEA and (c) after the TEA solution of step (b) had been replaced with TEA-free medium.\nA549 cells grown as described in the Materials and Methods section were preincubated for 1 h in medium containing 20 mM N-acetylcysteine (NAC) (Schreck et al., 1991). The cells, still in the presence of NAC, were then irradiated (150 cGy), and the induced currents were recorded. The results are shown in FIG. 19 (open circles, irradiation without NAC preincubation; open triangles, preincubation with 20 mM NAC; solid circles, non-irradiated control cells)."}, "heat shock factor (HSF)": {"tested_on": "heat shock factor (HSF)", "procedure": "To determine whether the presence of TEA during heating prevented the activation of heat shock factor (HSF), RIF-1 and TR-4 cells grown as in Example 1 were heated at 45° C. for 15-40 minutes in the presence or absence of 20 mM TEA in the medium. After being washed with fresh medium (no TEA), the cells were harvested, and gel retardation assays were performed as described by Zimarino et al. (1987), except that the electrophoresis was performed on a 4.5% native polyacrylamide gel in 0.5X TBE buffer (45 mM Tris-borate, 1 mM EDTA) at 140 V at room temperature for 2.5 h. The gel was fixed by soaking in 7% acetic acid for 5 min, rinsed briefly in distilled water, and dried on Whatman 3 MM chromatography paper. The gel was then autoradiographed by exposing Kodak XAR-2 film to the gels at -70° C. with intensifying screens (Cronex Lighting Plus, Dupont)."}, "[5]": {"tested_on": "K+ channel proteins recognized by antibody ShA-3", "test": "Western blot of K+ channel proteins in RIF-1 cells (ShA-3 antibody)", "format": "cell-based, murine", "conditions": "RIF-1 cells grown in 2% DMSO for 3, 5, 7 days", "procedure": "Western Blot Analysis In general, following separation of cellular proteins by sodium dodecyl sulfate (SDS)-polyacrylamide gel electrophoresis, separated proteins were electroblotted onto a nitrocellulose membrane using a 25 mM Tris-HCl/192 mM glycine/20% (v/v) methanol transfer buffer (pH 8.3) in a Trans-Blot apparatus (Bio-Rad, Richmond, Calif.) at 15 V and 100 mA for 12 to 14 h. The blot was blocked in 5% nonfat dry milk in TBS (50 mM Tris containing 0.2 M NaCl, pH 7.4) at room temperature for 1h; this step and all following steps were done with continuous agitation. The primary antibody was diluted 1:200 in 3% nonfat dry milk in TBS, and the blot was incubated for 16 to 24 h at 4° C. The blot was washed with TBS three times for 10 min per wash, and incubated for 2 h at room temperature with a 1:500 dilution of alkaline phosphatase-conjugated antispecies antibody. After washing with TBS as above, the blot was developed by incubation for 20 min in a solution containing 3-hydroxy-2-naphthoic acid 2,4-dimethylanilide phosphate (1 μg/ml ) and fast red (2 μg/ml) in TBS buffer. The developed blot was washed in distilled, deionized water to stop the color reaction.\nRIF-1 and TR-4 cells were grown in exponential phase at 37° C. in RPMI-1640 medium supplemented with 10% FBS. […]"}}, "note": "Entries after “also recorded” stand apart in the source; their conditions may differ.", "data": [{"smiles": "Cc1cn([C@H]2C[C@H](O)[C@@H](CO)O2)c(=O)[nH]c1=O", "note": "[[^3 H]thymidine]", "values": [{"measurement": "induction of potassium currents", "setting": "[1]; 2 μCi/ml for 16-18 hours prior to whole-cell recording", "result": "No potassium currents were observed"}]}, {"smiles": "OO", "note": "[Hydrogen peroxide, hydrogen peroxide]", "values": [{"measurement": "induction of voltage-dependent potassium current", "setting": "[1]; 3.0 μM final concentration in cell medium, measured within 30 seconds", "result": "sizeable voltage-dependent current"}]}, {"smiles": "CC[N+](CC)(CC)CC.[Cl-]", "note": "[TEA, Tetraethylammonium chloride]", "values": [{"measurement": "inhibitory effect on expression of HSP70 (constitutive and inducible forms)", "setting": "HSP70; 20 mM TEA during heating 10 min 45° C., ShakerB-transfected vs mock-transfected RIF-1 cells", "result": "greater in the cells transfected with the ShakerB gene than in mock transfected cells; also recorded: greater in the cells transfected with the ShakerB gene than in the mock-transfected cells"}, {"measurement": "effect on heat-induced voltage-dependent potassium currents", "setting": "[2]", "result": "abolished nearly all detectable current"}, {"measurement": "effect on heat-induced currents in DMSO-cultured cells", "setting": "[3]; 20 mM TEA in cell solution during current measurements", "result": "virtually abolished the currents"}, {"measurement": "effect on survival rate after heating", "setting": "RIF-1 cells; 20 mM TEA during heating at 45° C. for 0-100 min, RIF-1 cells", "result": "no effect on the survival rate of the RIF-1 cells; also recorded: no effect on the survival rate of RIF-1 cells"}, {"measurement": "effect on heat resistance of DMSO-cultured cells", "setting": "RIF-1 cells; 20 mM TEA in medium during heating, RIF-1 cells cultured 7 days in 2% DMSO", "result": "diminished heat resistance"}, {"measurement": "effect on development of thermotolerance", "setting": "TR-4 cells", "result": "little effect on the development of thermotolerance"}, {"measurement": "effect on cytotoxicity of 137Cs irradiation", "setting": "A549 cells", "result": "cytotoxicity was increased somewhat"}, {"measurement": "effect on radiation-induced potassium currents", "setting": "[4]; 20 mM TEA after 150 cGy 137Cs irradiation", "result": "reversible inhibition; also recorded: could be inhibited by TEA"}, {"measurement": "effect on heat-induced activation of HSF", "setting": "heat shock factor (HSF)", "result": "eliminated most or all of the heat-induced activation of HSF"}, {"measurement": "effect on levels of activated HSF", "setting": "heat shock factor (HSF)", "result": "no effect on the levels of activated HSF"}]}, {"smiles": "CC(=O)N[C@@H](CS)C(=O)O", "note": "[N-acetylcysteine]", "values": [{"measurement": "effect on induction of potassium currents by irradiation", "setting": "[4]; 20 mM, 1 h preincubation and present during 150 cGy irradiation", "result": "effective to substantially reduce current induction"}]}, {"smiles": "C[S+](C)[O-]", "note": "[DMSO, dimethylsulfoxide]", "values": [{"measurement": "effect on level of cellular HSP70", "setting": "HSP70; RIF-1 cells grown 7 days in 2% DMSO, heated 45° C. 10 min, analyzed directly or after 18 hour growth", "result": "no effect on the level of cellular HSP70"}, {"measurement": "voltage-dependent potassium currents in DMSO-cultured cells after heating", "setting": "[3]; heated 45° C. 10 min", "result": "exhibited voltage-dependent potassium currents"}, {"measurement": "heat resistance of cells cultured in DMSO", "setting": "RIF-1 cells; RIF-1 cells cultured in 2% (v:v) DMSO for seven days, then heated at 45° C.", "result": "significantly more heat resistant"}, {"measurement": "expression of K+ channel proteins recognized by ShA-3 antibody", "setting": "[5]", "result": "expressed at higher levels than in cells grown without DMSO; also recorded: increased with increasing duration of exposure"}]}]}
